The record followed here is patent publication US9309263B2, “Fused multi-cyclic sulfone compounds as inhibitors of beta-secretase and methods of use thereof” (AMGEN INC., priority 2013, dated 2016).

pIC50: −log10 of the molar value. Read-outs that look alike come from different tables or passages of the source.

Assay [1] has as its target Beta Secretase enzyme (BACE) (Homo sapiens, UniProt P56817). Put plainly: In vitro enzymatic BACE FRET assay. Conditions: average IC50; read-out: BACE1 FRET assay IC50. Type of assay: biochemical. In outline:
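Cleavage of a quenched 50 nM FRET peptide substrate, read as fluorescence (excitation 488 nm, […]) after 1 h and Tris quench to neutrality. Buffer: 0.05 M acetate pH 4.2 with 10% DMSO and 100 uM genapol. Inhibitor dilutions were pre-incubated 1 h with 0.2 nM enzyme.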

Assay [2] has as its system Aβ 40 in conditioned medium of cells stably expressing Amyloid Precursor Protein (APP). The experiment in a line: In vitro BACE cell-based assay (Aβ 40 sandwich ELISA). Conditions: Homo sapiens, HEK293; HEK cell; average IC50. In outline: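 Aβ40 in conditioned medium measured by pAb40/biotin-6E10 sandwich ELISA with time-resolved europium fluorescence, after 24 h exposure of stable APP cells to compounds (10-point series starting 100 μM or 10 μM; 0.1% DMSO). IC50 fitted from percent of control against concentration.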

A further assay concerns the target Cathepsin D (Cat D) (Homo sapiens, UniProt P07339). Put plainly: In vitro enzymatic Cathepsin D (Cat D) FRET assay. The class given is biochemical. The method, boiled down: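 FRET peptide substrate (20 nM) is cleaved by CHO-derived recombinant enzyme (9 nM) for 1 h after a 1 h inhibitor pre-incubation, at pH 3.5 in citrate buffer with 5 mM CHAPS and 10% DMSO. Tris addition ends the reaction; fluorescence measured at 500 nm excitation, 580 nm emission.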

Where [3] appears, read: text summary referring to data in Table 2.

Beta Secretase enzyme (BACE), sequence (P56817 46-501): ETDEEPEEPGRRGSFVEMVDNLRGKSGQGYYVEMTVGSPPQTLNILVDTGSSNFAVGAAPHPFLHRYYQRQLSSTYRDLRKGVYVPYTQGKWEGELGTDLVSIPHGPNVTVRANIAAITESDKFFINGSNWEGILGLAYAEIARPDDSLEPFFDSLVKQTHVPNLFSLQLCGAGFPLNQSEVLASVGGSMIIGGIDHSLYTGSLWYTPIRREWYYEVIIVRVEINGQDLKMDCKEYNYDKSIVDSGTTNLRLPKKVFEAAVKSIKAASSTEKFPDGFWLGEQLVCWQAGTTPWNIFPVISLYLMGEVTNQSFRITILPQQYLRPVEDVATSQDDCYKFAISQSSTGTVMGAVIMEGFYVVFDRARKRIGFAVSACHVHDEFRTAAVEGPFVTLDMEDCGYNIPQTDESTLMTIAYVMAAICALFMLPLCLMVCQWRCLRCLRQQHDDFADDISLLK
Cathepsin D (Cat D), sequence (P07339 65-412, species assumed): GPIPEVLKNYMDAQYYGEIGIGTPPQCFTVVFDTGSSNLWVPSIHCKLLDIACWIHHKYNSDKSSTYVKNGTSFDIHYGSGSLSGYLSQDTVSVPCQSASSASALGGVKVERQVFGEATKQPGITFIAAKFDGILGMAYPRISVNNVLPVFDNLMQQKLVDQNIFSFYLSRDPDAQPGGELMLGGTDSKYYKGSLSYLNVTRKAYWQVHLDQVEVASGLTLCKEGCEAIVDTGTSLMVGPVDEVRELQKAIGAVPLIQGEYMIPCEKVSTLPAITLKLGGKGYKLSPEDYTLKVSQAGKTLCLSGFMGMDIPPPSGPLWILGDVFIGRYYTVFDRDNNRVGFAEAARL

Consider `COc1cnc(C(=O)Nc2ccc3c(c2)[C@@]2(C)N=C(N)C(C)(C)S(=O)(=O)[C@H]2CCC3)c(C)c1` [Example 32, N-((4aS,11bR)-2-amino-3,3,11b-trimethyl-4,4-dioxido-3,4a,5,6,7,11b-hexahydrobenzo[3,4]cyclohepta[1,2-b][1,4]thiazin-10-yl)-5-methoxy-3-methyl-2-pyridinecarboxamide], for which the pIC50 in assay [1] is 7.14; in assay [2] it was 7.68; at Cathepsin D (Cat D) (read-out: CatD IC50), 2.87; on Cathepsin D (Cat D) (setting [3]), less than 2.92.

For `CC1(C)C(N)=N[C@]2(C)c3cc(Nc4nccc5cc(C#N)cnc45)ccc3CCC[C@@H]2S1(=O)=O` [Example 33, 8-(((4aS,11bR)-2-amino-3,3,11b-trimethyl-4,4-dioxido-3,4a,5,6,7,11b-hexahydrobenzo[3,4]cyclohepta[1,2-b][1,4]thiazin-10-yl)amino)-1,7-naphthyridine-3-carbonitrile], the results for the pIC50 (in assay [1]; in assay [2]; at Cathepsin D (Cat D) (read-out: CatD IC50)) were 7.54, 7.01 and 3.54, respectively.

With `CC1(C)C(N)=N[C@]2(C)c3cc(Nc4nccc5cc(Cl)cnc45)ccc3CCC[C@@H]2S1(=O)=O` [Example 34, (4aS,11bR)-N^~10^~-(3-chloro-1,7-naphthyridin-8-yl)-3,3,11b-trimethyl-3,4a,5,6,7,11b-hexahydrobenzo[3,4]cyclohepta[1,2-b][1,4]thiazine-2,10-diamine 4,4-dioxide], the pIC50 was 7.15 in assay [1], 6.33 in assay [2] and 3.39 on Cathepsin D (Cat D) (read-out: CatD IC50).

For `Cc1cc(C(F)F)cnc1C(=O)Nc1ccc2c(c1)[C@@]1(C)N=C(N)C(C)(C)S(=O)(=O)[C@H]1CCC2` [Example 35, N-((4aS,11bR)-2-amino-3,3,11b-trimethyl-4,4-dioxido-3,4a,5,6,7,11b-hexahydrobenzo[3,4]cyclohepta[1,2-b][1,4]thiazin-10-yl)-5-(difluoromethyl)-3-methyl-2-pyridinecarboxamide], the pIC50 in assay [1] is 7.31; in assay [2], 7.64; on Cathepsin D (Cat D) (read-out: CatD IC50), less than 3.40.

Take `CC1(C)C(N)=N[C@]2(C)c3cc(NC(=O)c4ncc(Cl)cc4Cl)ccc3CCC[C@@H]2S1(=O)=O` [Example 36, N-((4aS,11bR)-2-amino-3,3,11b-trimethyl-4,4-dioxido-3,4a,5,6,7,11b-hexahydrobenzo[3,4]cyclohepta[1,2-b][1,4]thiazin-10-yl)-3,5-dichloro-2-pyridinecarboxamide]: the figures for the pIC50 (in assay [1]; in assay [2]; on Cathepsin D (Cat D) (read-out: CatD IC50)) were 7.21, 6.54 and less than 3.40, respectively.

On to `Cc1cc(C#N)cnc1C(=O)Nc1ccc2c(c1)[C@@]1(C)N=C(N)C(C)(C)S(=O)(=O)[C@H]1CCC2` [Example 37, N-((4aS,11bR)-2-amino-3,3,11b-trimethyl-4,4-dioxido-3,4a,5,6,7,11b-hexahydrobenzo[3,4]cyclohepta[1,2-b][1,4]thiazin-10-yl)-5-cyano-3-methyl-2-pyridinecarboxamide], for which the figures for the pIC50 (in assay [1]; in assay [2]; at Cathepsin D (Cat D) (read-out: CatD IC50)) were 7.44, 7.80 and less than 3.40, respectively.

Take `CC1(C)C(N)=N[C@]2(C)c3cc(NC(=O)c4ccc(Cl)cn4)ccc3CCC[C@@H]2S1(=O)=O` [Example 38, N-((4aS,11bR)-2-amino-3,3,11b-trimethyl-4,4-dioxido-3,4a,5,6,7,11b-hexahydrobenzo[3,4]cyclohepta[1,2-b][1,4]thiazin-10-yl)-5-chloro-2-pyridinecarboxamide]: the pIC50 in assay [1] was 7.00; in assay [2] it was 6.82; on Cathepsin D (Cat D) (read-out: CatD IC50), less than 3.40.

Regarding `Cc1cc(OC(F)F)cnc1C(=O)Nc1ccc2c(c1)[C@@]1(C)N=C(N)C(C)(C)S(=O)(=O)[C@H]1CCC2` [Example 39, N-((4aS,11bR)-2-amino-3,3,11b-trimethyl-4,4-dioxido-3,4a,5,6,7,11b-hexahydrobenzo[3,4]cyclohepta[1,2-b][1,4]thiazin-10-yl)-5-(difluoromethoxy)-3-methyl-2-pyridinecarboxamide], the pIC50 in assay [1] is 6.85; in assay [2], 7.66; on Cathepsin D (Cat D) (read-out: CatD IC50) it was less than 3.40.

As for `Cc1cc(C(F)F)cnc1C(=O)Nc1ccc2c(c1)[C@@]1(C)N=C(N)C(C)(C)S(=O)(=O)[C@@H]1CCC2` [Example 40, N-((4aR,11bR)-2-amino-3,3,11b-trimethyl-4,4-dioxido-3,4a,5,6,7,11b-hexahydrobenzo[3,4]cyclohepta[1,2-b][1,4]thiazin-10-yl)-5-(difluoromethyl)-3-methyl-2-pyridinecarboxamide], the pIC50 is 7.46 in assay [1], 7.82 in assay [2] and less than 3.40 on Cathepsin D (Cat D) (read-out: CatD IC50).

With `Cc1cc(OC(F)F)cnc1C(=O)Nc1ccc2c(c1)[C@@]1(C)N=C(N)C(C)(C)S(=O)(=O)[C@@H]1CCC2` [Example 41, N-((4aR,11bR)-2-amino-3,3,11b-trimethyl-4,4-dioxido-3,4a,5,6,7,11b-hexahydrobenzo[3,4]cyclohepta[1,2-b][1,4]thiazin-10-yl)-5-(difluoromethoxy)-3-methyl-2-pyridinecarboxamide], the pIC50 in assay [1] was 7.74; in assay [2], 8.30; at Cathepsin D (Cat D) (read-out: CatD IC50), 2.26; on Cathepsin D (Cat D) (setting [3]), less than 2.92.

For the compound `COc1cnc(C(=O)Nc2ccc3c(c2)[C@@]2(C)N=C(N)C(C)(C)S(=O)(=O)[C@@H]2CCC3)c(C)c1` [Example 42, N-((4aR,11bR)-2-amino-3,3,11b-trimethyl-4,4-dioxido-3,4a,5,6,7,11b-hexahydrobenzo[3,4]cyclohepta[1,2-b][1,4]thiazin-10-yl)-5-methoxy-3-methyl-2-pyridinecarboxamide], the negative-log IC50 (pIC50) in assay [1] is 7.17; in assay [2], 7.49; on Cathepsin D (Cat D) (read-out: CatD IC50), 2.53; at Cathepsin D (Cat D) (setting [3]) it was less than 2.92.

On to `CC1(C)C(N)=N[C@]2(C)c3cc(NC(=O)c4ccc(Cl)cn4)ccc3CCC[C@H]2S1(=O)=O` [Example 43, N-((4aR,11bR)-2-amino-3,3,11b-trimethyl-4,4-dioxido-3,4a,5,6,7,11b-hexahydrobenzo[3,4]cyclohepta[1,2-b][1,4]thiazin-10-yl)-5-chloro-2-pyridinecarboxamide], for which the pIC50 in assay [1] was 7.92; in assay [2] it was 7.72; at Cathepsin D (Cat D) (read-out: CatD IC50), 3.34.

As to `CC1(C)C(N)=N[C@]2(C)c3cc(NC(=O)c4ncc(Cl)cc4Cl)ccc3CCC[C@H]2S1(=O)=O` [Example 44, N-((4aR,11bR)-2-amino-3,3,11b-trimethyl-4,4-dioxido-3,4a,5,6,7,11b-hexahydrobenzo[3,4]cyclohepta[1,2-b][1,4]thiazin-10-yl)-3,5-dichloro-2-pyridinecarboxamide], the pIC50 in assay [1] is 8.30; in assay [2], 7.80; on Cathepsin D (Cat D) (read-out: CatD IC50), 3.27.

`Cc1cc(C(F)(F)F)cnc1C(=O)Nc1ccc2c(c1)[C@@]1(C)N=C(N)C(C)(C)S(=O)(=O)[C@@H]1CCC2` [Example 45, N-((4aR,11bR)-2-amino-3,3,11b-trimethyl-4,4-dioxido-3,4a,5,6,7,11b-hexahydrobenzo[3,4]cyclohepta[1,2-b][1,4]thiazin-10-yl)-3-methyl-5-(trifluoromethyl)-2-pyridinecarboxamide]: the pIC50 in assay [1] was 7.74; in assay [2], 8.22; at Cathepsin D (Cat D) (read-out: CatD IC50), 2.83; on Cathepsin D (Cat D) (setting [3]), less than 2.92.

`CC1(C)C(N)=N[C@]2(C)c3cc(Nc4nccc5cc(Cl)cnc45)ccc3CCC[C@H]2S1(=O)=O` [Example 46, (4aR,11bR)-N^~10^~-(3-chloro-1,7-naphthyridin-8-yl)-3,3,11b-trimethyl-3,4a,5,6,7,11b-hexahydrobenzo[3,4]cyclohepta[1,2-b][1,4]thiazine-2,10-diamine 4,4-dioxide]: the results for the pIC50 (in assay [1]; in assay [2]; on Cathepsin D (Cat D) (read-out: CatD IC50)) were 8.00, 6.99 and 4.07, respectively.

As to `CC1(C)C(N)=N[C@]2(C)c3cc(Nc4nccc5cc(C#N)cnc45)ccc3CCC[C@H]2S1(=O)=O` [Example 47, 8-(((4aR,11bR)-2-amino-3,3,11b-trimethyl-4,4-dioxido-3,4a,5,6,7,11b-hexahydrobenzo[3,4]cyclohepta[1,2-b][1,4]thiazin-10-yl)amino)-1,7-naphthyridine-3-carbonitrile], the pIC50 in assay [1] was 8.10; in assay [2], 7.38; on Cathepsin D (Cat D) (read-out: CatD IC50), 3.47.

Take `COc1cnc2c(Nc3ccc4c(c3)[C@@]3(C)N=C(N)C(C)(C)S(=O)(=O)[C@@H]3CCC4)nccc2n1` [Example 48, (4aR,11bR)-N^~10^~-(2-methoxypyrido[3,4-b]pyrazin-5-yl)-3,3,11b-trimethyl-3,4a,5,6,7,11b-hexahydrobenzo[3,4]cyclohepta[1,2-b][1,4]thiazine-2,10-diamine 4,4-dioxide]: the negative-log IC50 (pIC50) in assay [1] was 7.39; in assay [2], 7.39; at Cathepsin D (Cat D) (read-out: CatD IC50) it was 3.41.

In the case of `Cc1c(C(=O)Nc2ccc3c(c2)[C@@]2(C)N=C(N)C(C)(C)S(=O)(=O)[C@@H]2CCC3)nc2ccc(Cl)cn12` [Example 49, N-((4aR,11bR)-2-amino-3,3,11b-trimethyl-4,4-dioxido-3,4a,5,6,7,11b-hexahydrobenzo[3,4]cyclohepta[1,2-b][1,4]thiazin-10-yl)-6-chloro-3-methylimidazo[1,2-a]pyridine-2-carboxamide], the results for the pIC50 (in assay [1]; in assay [2]; at Cathepsin D (Cat D) (read-out: CatD IC50)) were 7.09, 7.89 and 3.40, respectively.
